The values below come from patent publication USRE39723E1, “Semi-synthetic taxanes with antitumor and antiangiogenetic activities” (Indena S.p.A., priority 2000, dated 2007).

The test system of data set [1] is angiogenesis induced by FGF-2 adsorbed on a Matrigel pellet. The data set can be described thus: Matrigel test, in vivo antiangiogenetic activity (hemoglobin content in pellets). Details: species or system C57BL6N mice. The following applies: after 7 days. The protocol:
The antiangiogenic activity was evaluated by means of the Matrigel test, in which angiogenesis is induced by FGF-2 ([…]) adsorbed on a Matrigel pellet (12.5 mg/ml, 0.5 mL) injected subcutaneously in C57BL6N mice.
The tested compound was administered through the oral route daily or through the intraperitoneal route on alternate days, at the shown concentration. After 7 days, the angiogenic response was evaluated by measuring the hemoglobin content in the pellets, according to the procedure by Drabkin.

As for “13-[(2R, 3S)-3-iso-butyl-2-hydroxy-3-tert-butoxycarbonylamino-propanoyl]-C-seco-10-dehydro-10-deacetyl-7,9-bis-acetyl-baccatine III [Example II]”, the “% (change of hemoglobin content)” value in data set [1] (90 mg/kg i.p. on alternate days) is −50%; in data set [1] (150 mg/kg p.o. daily), −70%. For the same molecule, the Hemoglobin amounted to 0.015 ± 0.001 g/dL in data set [1] (90 mg/kg i.p. on alternate days, FGF-2 Matrigel pellet s.c.) and 0.009 ± 0.001 g/dL in data set [1] (150 mg/kg p.o. daily, FGF-2 Matrigel pellet s.c.).
For “13-[(2R, 3S)-3-isobutyl-2-hydroxy-3-tert-butoxycarbonylamino-propanoyl]-C-seco-10-dehydro-10-deacetyl-7,9-bis-acetyl-baccatine III 1,14-carbonate [Example VII]”, the “% (change of hemoglobin content)” value in data set [1] (50 mg/kg i.p. on alternate days) is reported as −40%; in data set [1] (100 mg/kg p.o. daily), −70%. For the same molecule, the Hemoglobin in data set [1] (50 mg/kg i.p. on alternate days, FGF-2 Matrigel pellet s.c.) stood at 0.014 g/dL; in data set [1] (100 mg/kg p.o. daily, FGF-2 Matrigel pellet s.c.), 0.009 g/dL.
Consider `CC(=O)O[C@H]1C(=O)[C@@]2(C)[C@H]([C@H](OC(=O)c3ccccc3)[C@]3(O)C[C@H](OC(=O)[C@H](O)[C@@H](NC(=O)c4ccccc4)c4ccccc4)C(C)=C1C3(C)C)[C@]1(OC(C)=O)CO[C@@H]1C[C@@H]2O` [Paclitaxel], for which, for the setting “mouse, in vivo”, the “neuro-toxicity (tremors)” value is “induces tremors”. The weight loss result (nude mouse with human tumor cells, dose effective in inhibiting tumor growth (same antitumor activity)) was “up to 20%”.
In turn, “FGF-2: growth factor adsorbed on the Matrigel pellet to induce angiogenesis [reference compound]” registered a Hemoglobin in data set [1] (FGF-2 alone (150 mg/pellet) on Matrigel pellet, no test compound) of 0.03 ± 0.001 g/dL. For the same molecule, the “% (change of hemoglobin content)” value in data set [1] (FGF-2 alone versus control) was “+300%”.
